In patent US20110071197A1, “BIS-ARYL COMPOUNDS FOR USE AS MEDICAMENTS” (priority 2008, published 2011):

target: T1, Recombinant human LTC4 synthase (Homo sapiens, UniProt Q16873); test: LTC4 synthase in vitro assay (HTRF detection of LTC4); format: biochemical; settings: compound concentration 1 μM; HTRF method
T1 construct: made in house; host or cells: Pichia pastoris
T1 sequence (Q16873 1-150): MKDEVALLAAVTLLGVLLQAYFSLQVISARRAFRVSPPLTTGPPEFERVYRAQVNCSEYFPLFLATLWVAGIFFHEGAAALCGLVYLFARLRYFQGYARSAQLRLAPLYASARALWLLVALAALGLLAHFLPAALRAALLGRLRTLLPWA
Method: Alternatively HTRF detection of LTC4 can be used:
In the assay, LTC4 synthase catalyses the reaction where the substrate LTA4 is converted to LTC4. Recombinant human LTC4 synthase is expressed in Piccia pastoralis and the purified enzyme is dissolved in 25 mM Tris-buffer pH 7.8 supplemented with 0.1 mM glutathione (GSH) and stored at −80° C. The assay is performed in phosphate buffered saline (PBS) pH 7.4 and 5 mM GSH in 384-well plates.
The following is added chronologically to each well: • 1. 48 μl LTC4 synthase in PBS with 5 mM GSH. The total protein concentration in this solution is 0.5 μg/ml. • 2. […] Incubation of the plate at room temperature for 10 minutes. • 4. 1 μl LTA4 (final conc. 2.5 μM). • 5. Incubation of the plate at room temperature for 5 minutes. • 6. 10 μl of the incubation mixture is analysed using homogeneous time resolved fluorescent (HTRF) detection.

Q: How did the “% inh.” value turn out when O=C(Cc1ccc(Cl)cc1)Nc1ccc(Oc2ccc(NC(=O)c3ccc(C(F)(F)F)cc3)c(C(=O)O)c2)cc1 [8:7, 5-[(4-(2-(4-chlorophenyl)acetyl-amino)phenoxy)]-2-(4-trifluoro-methylbenzoylamino)benzoic acid] was run?
A: The value was 64 (1 μM) %.

same assay, conditions: compound concentration 3 μM; HTRF method

Q: With Cc1nc(C(F)(F)F)ccc1C(=O)Nc1ccc(Oc2ccc(NC(=O)c3ccc(C(F)(F)F)cc3)c(C(=O)O)c2)cc1 [8:5, 5-[4-((2-methyl-6-(trifluoro-methyl)-pyridine-3-carbonyl)-amino)-phenoxy]-2-(4-(trifluoro-methyl)-benzoylamino)-benzoic acid] as the molecule, how does the inhibition at 3 µM read?
A: Its inhibition at 3 µM is 83%.

Q: Which inhibition at 3 µM does the source give for CCCCc1ccc(C(=O)Nc2ccc(Oc3ccc(NC(=O)c4ccccc4)cc3)cc2C(=O)O)cc1 [8:8, 5-(4-benzoylaminophenoxy)-2-(4-butylbenzoylamino)benzoic acid] here?
A: Its inhibition at 3 µM is 89%.

Q: How did the inhibition at 3 µM turn out when CCOc1ccc(C(=O)Nc2ccc(Oc3ccc(NC(=O)c4ccccc4)cc3)cc2C(=O)O)cc1 [8:11, 5-(4-benzoylaminophenoxy)-2-(4-ethoxybenzoylamino)-benzoic acid] was run?
A: The inhibition at 3 µM was 70%.

same assay, conditions: total concentration of title compound in the assay 10 μM; HTRF method

Q: How did the inhibition at 10 µM turn out when CC(C)Oc1ccc(C(=O)Nc2ccc(Oc3ccc(NC(=O)c4ccc(Cl)cc4Cl)c(CC(=O)O)c3)cc2C(=O)O)cc1 [6:6, 5-[3-carboxymethyl-4-(2,4-dichloro-benzoyl-amino)phenoxy]-2-(4-isopropoxybenzoyl-amino)benzoic acid] was run?
A: The inhibition at 10 µM was 98%.

Q: CCOc1c(Cl)cc(C(F)(F)F)cc1C(=O)Nc1ccc(Oc2ccc(NC(=O)c3ccc(OC(C)C)cc3)c(C(=O)O)c2)cc1CC(=O)O [6:7, 5-[3-carboxymethyl-4-(3-chloro-2-ethoxy-5-tri-fluoromethylbenzoyl-amino)phenoxy]-2-(4-isopropoxybenzoyl-amino)benzoic acid] was tested. Which inhibition at 10 µM did it give?
A: Its inhibition at 10 µM is 100%.

Q: For O=C(Nc1ccc(Oc2ccc([N+](=O)[O-])cc2)cc1C(=O)O)c1ccc(Cl)cc1Cl [8:2, 2-(2,4-dichlorobenzamido)-5-(4-nitrophenoxy)benzoic acid], which inhibition at 10 µM is on record?
A: Its inhibition at 10 µM is 93%.

Q: O=C(Nc1ccc(Oc2ccc(NC(=O)c3cc(Cl)ccc3O)cc2)cc1C(=O)O)c1ccc(C(F)(F)F)cc1 [8:3, 5-[4-(5-chloro-2-hydroxybenzoylamino)phenoxy]-2-(4-trifluoro-methylbenzoylamino)-benzoic acid] was tested. Which “% inh.” value did it give?
A: Its value is 96%.

Q: How did the inhibition at 10 µM turn out when CCCCc1ccc(C(=O)Nc2ccc(Oc3ccc(NC(=O)c4ccc(C(F)(F)F)cc4)c(C(=O)O)c3)cc2)cc1 [8:4, 5-[4-(4-(butyl)benzoylamino)-phenoxy]-2-(4-trifluoromethyl-benzoylamino)benzoic acid] was run?
A: Its inhibition at 10 µM is 89%.

Q: Which “% inh.” value does the source give for CN(C)c1ccc(C(=O)Nc2ccc(Oc3ccc(NC(=O)c4ccc(C(F)(F)F)cc4)c(C(=O)O)c3)cc2)cc1.Cl [8:6, 5-[4-(4-dimethylaminobenzoyl-amino)phenoxy]-2-(4-trifluoro-methylbenzoylamino)benzoic acid hydrochloride] here?
A: The value was 97%.

Q: With CCCCc1ccc(C(=O)Nc2ccc(Oc3ccc(NC(=O)c4cc(OC)cc(OC)c4)cc3)cc2C(=O)O)cc1 [8:9, 2-(4-butylbenzoylamino)-5-[4-(3,5-dimethoxybenzoylamino)-phenoxy]benzoic acid] as the molecule, how does the inhibition at 10 µM read?
A: Its inhibition at 10 µM is 88%.

Q: How did the inhibition at 10 µM turn out when O=C(Nc1ccc(Oc2ccc(NC(=O)c3ccc(OC(F)(F)F)cc3)c(C(=O)O)c2)cc1)c1ccccc1 [8:10, 5-(4-benzoylaminophenoxy)-2-(4-trifluoromethoxy-benzoylamino)benzoic acid] was run?
A: Its inhibition at 10 µM is 67%.

Q: With CCCCc1ccc(C(=O)Nc2ccc(Oc3ccc(NC(=O)c4ccccc4)c(C(=O)O)c3)cc2)cc1 [8:12, 2-benzoylamino-5-[4-(4-butyl-benzoylamino)phenoxy]-benzoic acid] as the molecule, how does the inhibition at 10 µM read?
A: The inhibition at 10 µM was 99%.

Q: How did the inhibition at 10 µM turn out when CC(C)Oc1ccc(C(=O)Nc2ccc(Oc3ccc(NC(=O)c4ccccc4)c(C(=O)O)c3)cc2)cc1 [8:13, 2-benzoylamino-5-[4-(4-iso-propoxybenzoylamino)-phenoxy]benzoic acid] was run?
A: Its inhibition at 10 µM is 98%.
